Results on 3 compounds are retold here after US11266613B2 (priority 2017, dated 2022).

Where “and” joins values, the source holds several entries; their conditions need not be identical. Identical values can stand only once. Like-named read-outs stand apart in the source and are kept apart here.

The test system of data set [1] is pentobarbitone anaesthetized mice. Conditions: bolus dose of 100 mg/kg i.v. The source says:
An initial toxicity study was undertaken in pentobarbitone anaesthetized mice.

Data set [2] relates to pentobarbitone anaesthetized rats. Particulars: 60 mg/kg i.v. over 20 minutes. On the procedure:
A study was carried out to assess tolerability in pentobarbitone anaesthetized rats.

Data set [3] has as its system arrhythmias which occur early after occlusion of the left coronary artery. On the procedure:
Groups of female rats, each in the weight range of 200-300 g, were studied.
The protocol used followed that used in many previous studies seeking dose-related data for novel compounds and reference drugs.
Five minutes after the start of drug delivery the left main coronary artery was occluded (J Mol Cell Cardiol 19: 399-419 1987). This caused a region of ischaemia (verified by the occluded zone, OZ) which was maintained for the duration of the observation period (30 minutes) during which severe arrhythmias caused by the resultant cardiac ischaemia occur (J Mol Cell Cardiol 19: 399-419 1987).
This study was not randomized but was progressed from a low dose to a high dose.
Outcomes were evaluated versus a historical data base of 140 rats treated identically (0.8% saline infusion and coronary artery ligation).
Procedures: • From the ECG, the PR and QT and heart rate were determined. • From a femoral artery catheter, blood pressure (BP) was monitored. • Arrhythmic Score (AS) was determined by counting the number of ventricular premature beats (VPBs) and the occurrence of ventricular tachycardia (VT) and fibrillation (VF) (Cardiovasc Res 22: 656-665, 1988). • Occlusion Zone (OZ) was measured by weight (g) using a dye exclusion method (J Mol Cell Cardiol 19: 399-419 1987).

A further data set deals with Rat isolated heart. The data set can be described thus: Rat isolated heart, 30 min regional ischaemia (coronary ligation), VF incidence (Example 2). Particulars: for reduction of incidence of ischaemia-induced VF: 30 min regional ischaemia, test solutions 15 μM and 150 μM. The procedure: Model Choice: • Rat isolated heart, 30 min regional ischaemia (coronary ligation) • High baseline susceptibility to VF • Scope for detection of VF suppression by drugs

In data set [4] the test system is anaesthetised rats, induced infarction, VF. Particulars: for VF-free survival after 30 minutes: 2 mg/kg bolus and 0.5 mg/kg/min infusion, IV before induced infarction, control 0%.
Text: Method: • Randomized, blinded and fully powered trial • Groups of n=6 anaesthetised rats • Test solutions delivered by IV to rat tail vein before induced infarction
Data set [5] deals with anaesthetised rats, myocardial infarction.
In a further data set the test system is Langendorff preparation. Conditions: cited from earlier work; for inhibition of VF: administered before or after ischaemia onset, Langendorff preparation.
For data set [6], the system named is patients at high risk of VT or VF following myocardial infarction. Particulars: cited from earlier work.
Where [7] appears, read: LNO 3 mg/kg total dose i.v. over 20 min, group mean.
[8] abbreviates: LNO 10 mg/kg total dose i.v. over 20 min, group mean.
The mark [9] stands for this setting: LNO 10 mg/kg total dose i.v. over 20 min, individual rat.
Setting [10] is: LNO 30 mg/kg total dose i.v. over 20 min, group mean.
Setting [11] is: LNO 100 mg/kg total dose i.v. over 20 min, group mean.

As for `CC[N+]([O-])(CC)CC(=O)Nc1c(C)cccc1C` [LNO, lidocaine N-oxide], the “tolerability of the dose” value in data set [1] is “well tolerated”; in data set [2], “tolerated”. The “therapeutic window from the threshold effective dose” value in data set [3] (3 mg/kg to 30 mg/kg i.v.) is “at least ten-fold”. The “AS (arrhythmia score)” value in data set [3] (setting [7]) is 4.5; in data set [3] (LNO 3 mg/kg total dose i.v. over 20 min, individual rat), 7 and 3 (2×) and 5; in data set [3] (setting [8]), 1.67; in data set [3] (setting [9]) it was 1 (2×) and 3; in data set [3] (setting [10]), 2; in data set [3] (setting [11]) it was 2.67. Moreover, the “VF (ventricular fibrillation)” value in data set [3] (setting [7]) was 0.25 number of episodes; in data set [3] (setting [9]) it was 0 number of episodes; in data set [3] (setting [10]), 2 number of episodes; in data set [3] (setting [11]) it was 0.33 number of episodes. Also, the “VT (ventricular tachycardia)” value in data set [3] (setting [7]) is reported as 7.75 number of episodes; in data set [3] (setting [8]), 3 number of episodes; in data set [3] (setting [10]) it was 22 number of episodes; in data set [3] (setting [11]), 3.67 number of episodes. Also, the “Occl 10’ BP (blood pressure)” value in data set [3] (LNO 100 mg/kg total dose i.v. over 20 min, individual rat) is recorded as “Dead”. Moreover, the “arrhythmia score (AS) versus control” value in data set [3] (each tested dose: 3, 10, 30 and 100 mg/kg, 30 min regional ischaemia, vs historical controls) is recorded as “significantly reduced”. For the same compound, in data set [3] (highest dose of LNO, 100 mg/kg), the off-target actions result is recorded as “one death due to convulsion”. Besides, the “dose up to which no off-target effects are seen” value in data set [3] (rat, in vivo, iv) is 30 mg/kg. The “lowest dose at which antiarrhythmic activity is seen (threshold effective dose)” value in data set [3] (regional ischaemia, i.v.) was 3 mg/kg. In addition, the “effect on PR” value in the data set on Rat isolated heart is listed as “did not show any effect”. Also, the “effect on heart rate” value in the data set with Rat isolated heart is “only a small effect”. Also, in the data set on Rat isolated heart (isolated rat heart), the “reduction of incidence of ischaemia-induced VF” value is reported as “equally as effective as lidocaine”. In data set [4], the “VF-free survival after 30 minutes” value amounted to 67%. Also, the “effectiveness against VF” value in data set [4] (anaesthetised rats, IV) is recorded as “effective”. The “time post-infarction before a VF event” value in data set [4] (anaesthetised rats, IV) is given as “longer time”. For the same compound, the bradyarrhythmias entry in data set [4] (rat, in vivo, iv) was “did not”. In addition, the survival rate in data set [5] (anaesthetised rats, LNO directly to the bloodstream prior to myocardial infarction) turned out to be 100%. Also, the “signs of excessive reduction in contractile function, decreased heart rate, complete heart block or asystole” value in data set [5] (rat, in vivo) is on record as “no signs”. In the data set on Langendorff preparation, the “inhibition of VF” value is recorded as “equi-effective”. Further, the “dose-limiting bradycardia or PR interval elongation” value with Langendorff preparation is recorded as “didn't induce”.
In the case of `O=C(NCC1CCCCN1)c1cc(OCC(F)(F)F)ccc1OCC(F)(F)F` (centres unmarked) [flecainide], the “increase in the risk of mortality” value in data set [6] is “three-fold”.
`CCN(CC)CC(=O)Nc1c(C)cccc1C` [lidocaine, reference compound]: in the data set with Rat isolated heart (15 μM, during 30 min ischaemia), the “PR interval versus control” value is “higher”. Further, the “reduction of incidence of ischaemia-induced VF” value in the data set on Rat isolated heart (isolated rat heart) is recorded as “equally effective”. Further, the “effect on PR” value in the data set on Rat isolated heart (isolated rat heart, conclusion) is listed as “did show an impact”. For the same compound, in data set [4], the “VF-free survival after 30 minutes” value turned out to be 67%. Further, in data set [4] (anaesthetised rats, IV), the bradyarrhythmias entry was “led to bradyarrhythmias” and the “effectiveness against VF” value is listed as “effective”. Besides, in the data set with Langendorff preparation, the “inhibition of VF” value is on record as “equi-effective”.
